In US20130158072A1, “KAPPA OPIOID RECEPTOR BINDING LIGANDS” (Research Triangle Institute, priority 2010, published 2013):
“Also recorded” adds a separate entry of the source. Structures can show the parent of a compound that is named as a salt. Marks after values point to notes of the source that are not given here. One block for each compound: values may come before it.

Assays:
κ-opioid receptor = settings: in vivo, compared with other κ-opioid antagonists; cited from earlier work
rats = settings: oral; cited from earlier work
[1] = target: T1, cloned human κ-opioid receptor (Homo sapiens, UniProt P41145); assay: Inhibition of U69,593-stimulated [35S]GTPγS binding; settings: for κ, U69,593 Ke / κ, U69,593 Ke (nM): antagonism of U69,593-stimulated [35S]GTPγS binding, CHO cells, means ± SE, at least three experiments; for δ/κ: κ selectivity relative to δ
rodents = settings: forced-swim, elevated plus maze, fear-potentiated startle; cited from earlier work
[2] = target: T1, cloned human κ-opioid receptor; assay: Intrinsic activity in the [35S]GTPγS binding assay; format: biochemical; design: expressed in transfected cells; host or cells: CHO cells; settings: at 10 μM
[3] = target: T1, cloned human κ-opioid receptor; design: expressed in transfected cells; host or cells: CHO cells; settings: previously reported; cited from earlier work
[4] = target: T2, cloned human δ-opioid receptor (Homo sapiens, UniProt P41143); assay: Intrinsic activity in the [35S]GTPγS binding assay; format: biochemical; settings: at 10 μM
T2 construct: expressed in transfected cells; host or cells: CHO cells

[5] = target: T3, cloned human μ-opioid receptor (Homo sapiens, UniProt P35372); assay: Intrinsic activity in the [35S]GTPγS binding assay; format: biochemical; settings: at 10 μM
T3 construct: expressed in transfected cells; host or cells: CHO cells

mice = settings: oral; cited from earlier work
[6] = target: T3, cloned human μ-opioid receptor; assay: Inhibition of DAMGO-stimulated [35S]GTPγS binding; format: biochemical; settings: for μ, DAMGO Ke (nM): antagonism of DAMGO-stimulated [35S]GTPγS binding, CHO cells, means ± SE, at least three experiments
[7] = target: T2, cloned human δ-opioid receptor; assay: Inhibition of DPDPE-stimulated [35S]GTPγS binding; format: biochemical; settings: antagonism of DPDPE-stimulated [35S]GTPγS binding, CHO cells; means ± SE, at least three experiments

T3 sequence (P35372 whole entry): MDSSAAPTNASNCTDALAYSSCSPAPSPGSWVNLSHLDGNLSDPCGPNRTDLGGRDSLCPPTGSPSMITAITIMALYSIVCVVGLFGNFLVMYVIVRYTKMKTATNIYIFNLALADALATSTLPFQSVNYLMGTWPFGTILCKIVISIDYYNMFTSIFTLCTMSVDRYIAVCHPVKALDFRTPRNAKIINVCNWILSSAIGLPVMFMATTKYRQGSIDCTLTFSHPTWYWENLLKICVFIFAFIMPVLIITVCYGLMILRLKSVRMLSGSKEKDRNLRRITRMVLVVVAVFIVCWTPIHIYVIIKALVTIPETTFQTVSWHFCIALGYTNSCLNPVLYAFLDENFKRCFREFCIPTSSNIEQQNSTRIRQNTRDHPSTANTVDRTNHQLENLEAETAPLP
T2 sequence (P41143 whole entry): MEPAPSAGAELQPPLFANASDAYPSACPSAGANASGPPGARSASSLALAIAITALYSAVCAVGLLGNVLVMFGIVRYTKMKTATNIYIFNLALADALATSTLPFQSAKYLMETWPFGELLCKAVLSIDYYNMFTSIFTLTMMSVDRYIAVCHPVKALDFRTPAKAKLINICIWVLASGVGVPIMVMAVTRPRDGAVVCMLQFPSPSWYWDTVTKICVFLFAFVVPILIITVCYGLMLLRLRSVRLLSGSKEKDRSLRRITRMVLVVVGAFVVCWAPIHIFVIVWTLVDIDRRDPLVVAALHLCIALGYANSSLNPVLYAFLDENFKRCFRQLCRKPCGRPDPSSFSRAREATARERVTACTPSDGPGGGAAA
T1 sequence (P41145 whole entry): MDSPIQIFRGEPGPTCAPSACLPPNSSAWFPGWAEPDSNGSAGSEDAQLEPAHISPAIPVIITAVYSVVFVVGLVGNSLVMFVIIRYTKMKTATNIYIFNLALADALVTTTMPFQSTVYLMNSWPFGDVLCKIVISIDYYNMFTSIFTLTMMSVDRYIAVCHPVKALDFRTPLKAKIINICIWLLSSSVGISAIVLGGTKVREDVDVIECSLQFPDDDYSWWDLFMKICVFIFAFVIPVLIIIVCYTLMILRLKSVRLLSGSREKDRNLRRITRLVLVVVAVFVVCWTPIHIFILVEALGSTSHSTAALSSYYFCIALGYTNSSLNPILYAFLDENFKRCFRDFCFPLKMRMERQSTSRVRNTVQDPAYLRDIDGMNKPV

κ, U69,593 Ke [1]: 0.02 nM
Compound: CC(C)[C@@H](CN1CC[C@@](C)(c2cccc(O)c2)[C@@H](C)C1)NC(=O)[C@H]1Cc2ccc(O)cc2CN1 [Compound 3, (3R)-7-hydroxy-N-((1S)-1-{[(3R,4R)-4-(3-hydroxyphenyl)-3,4-dimethyl-1-piperidinyl]methyl}-2-methylpropyl)-1,2,3,4-tetrahydro-3-isoquinolinecarboxamide]
potency at blocking κ-opioid agonist-induced activity (κ-opioid receptor): more potent | prevention of stress-induced cocaine reinstatement of self-administration (rats): oral activity | fear and stress-induced responses (rodents): dose-dependently reduce fear and stress-induced responses | intrinsic activity at the κ opioid receptor [2]: none of the compounds displayed measurable intrinsic activity | Ke value at the κ-opioid receptor [3]: 0.02 nM | intrinsic activity at the δ opioid receptor [4]: none of the compounds displayed measurable intrinsic activity | intrinsic activity at the μ opioid receptor [5]: none of the compounds displayed measurable intrinsic activity | antagonism of the antinociceptive activity of enadoline (mice): oral activity

Compound: Oc1ccc2c3c1O[C@H]1c4[nH]c5c(c4C[C@@]4(O)[C@@H](C2)N(CC2CC2)CC[C@]314)C[C@@]1(O)[C@H]2Cc3ccc(O)c4c3[C@@]1(CCN2CC1CC1)[C@H]5O4 [Compound 1, nor-BNI]
fear and stress-induced responses (rodents): dose-dependently reduce fear and stress-induced responses

Compound: CC[C@H](C)[C@@H](CN1CC[C@@](C)(c2cccc(O)c2)[C@@H](C)C1)NC(=O)[C@@]1(C)Cc2ccc(O)cc2CN1 (as salt: hydrochloride) [Compound 8i, (3R)-7-Hydroxy-N-[(1S,2S)-1-{[(3R,4R)-4-(3-hydroxyphenyl)-3,4-dimethylpiperidin-1-yl]methyl}-2-methylbutanyl]-3-methyl-1,2,3,4-tetrahydroisoquinoline-3-carboxamide]
melting point: > 220 °C (dec.)

Compound: COc1cccc([C@]2(C)CCN(C[C@@H](NC(=O)[C@H]3Cc4ccc(O)cc4CN3)C(C)C)C[C@@H]2C)c1 (as salt: hydrochloride) [Compound 8d, (3R)-7-Hydroxy-N-[(1S)-1-{[(3R,4R)-4-(3-methoxyphenyl)-3,4-dimethylpiperidin-1-yl]methyl}-2-methylpropyl]-1,2,3,4-tetrahydroisoquinoline-3-carboxamide]
melting point: > 220 °C (dec.)

Compound: CC[C@H](C)[C@@H](CN1CC[C@@](C)(c2cccc(O)c2)[C@@H](C)C1)NC(=O)[C@H]1Cc2ccc(O)cc2CN1C (as salt: hydrochloride) [Compound 8j, (3R)-7-Hydroxy-N-[(1S,2S)-1-{[(3R,4R)-4-(3-hydroxyphenyl)-3,4-dimethylpiperidin-1-yl]methyl}-2-methylbutanyl]-2-methyl-1,2,3,4-tetrahydroisoquinoline-3-carboxamide]
melting point: 180 °C (dec.)

Compound: COc1ccc2c(c1)CNC(C(=O)NC(CN1CCC(C)(c3cccc(O)c3)C(C)C1)C(C)C)C2 (centres unmarked) [Compound 8b]
κ, U69,593 Ke [1]: 0.06 nM | κ, U69,593 Ke (nM) [1]: 0.06 ± 0.01^c nM | decrease in potency at the κ receptor relative to 3 ([1]; compared with 3): 3 fold | δ/κ ([1]; ratio of Ke values): 1970 | μ/κ ([1]; ratio of Ke values, κ selectivity relative to μ): 857 | μ, DAMGO Ke (nM) [6]: 51.4 ± 15^c nM | Ke value at the κ-opioid receptor [3]: 0.06 nM | fold less potent than 3 at the κ-opioid receptor [3]: 3 fold | κ selectivity relative to the δ opioid receptor [3]: 1970 fold | κ selectivity relative to the μ opioid receptor [3]: 857 fold | δ, DPDPE Ke (nM) [7]: 118 ± 45^c nM

Compound: CC[C@H](C)[C@@H](CN1CC[C@@](C)(c2cccc(OC)c2)[C@@H](C)C1)NC(=O)[C@H]1Cc2ccc(O)cc2CN1 (as salt: hydrochloride) [Compound 8f, (3R)-7-Hydroxy-N-[(1S,2S)-1-{[(3R,4R)-4-(3-methoxyphenyl)-3,4-dimethylpiperidin-1-yl]methyl}-2-methylbutanyl]-1,2,3,4-tetrahydroisoquinoline-3-carboxamide]
melting point: > 220 °C (dec.)

Compound: CCC(C)C(CN1CCC(C)(c2cccc(O)c2)C(C)C1)NC(=O)C1Cc2ccc(O)cc2CN1 (centres unmarked) [Compound 8a]
κ, U69,593 Ke [1]: 0.03 nM | κ, U69,593 Ke (nM) [1]: 0.03 ± 0.02^c nM | δ/κ ([1]; ratio of Ke values): 800 | μ, DAMGO Ke (nM) [6]: 3 ± 1^c nM | potency at μ receptors compared to 3 ([6]; compared with 3): increased potency; also recorded: eight-fold increase in potency | Ke value at the κ-opioid receptor [3]: 0.03 nM | κ selectivity relative to the δ opioid receptor [3]: 800 fold | κ selectivity relative to the μ opioid receptor [3]: 100 fold | δ, DPDPE Ke (nM) [7]: 24 ± 4^c nM

Compound: CC[C@H](C)[C@@H](CN1CC[C@@](C)(c2cccc(OC)c2)[C@@H](C)C1)NC(=O)[C@@]1(C)Cc2ccc(O)cc2CN1 (as salt: hydrochloride) [Compound 8n, (3R)-7-Hydroxy-N-[(1S,2S)-1-{[(3R,4R)-4-(3-methoxyphenyl)-3,4-dimethylpiperidin-1-yl]methyl}-2-methylbutanyl)-3-methyl-1,2,3,4-tetrahydroisoquinoline-3-carboxamide]
melting point: 210 °C (dec.)
